In patent US20060100431A1, “Biologically active compounds” (Amura Therapeutics Limited, priority 2002, published 2006):
Read-outs that look alike come from different tables or passages of the source.

Experiments:
human cathepsin L = target: T1, human cathepsin L (Homo sapiens, UniProt P07711); assay: Cathepsin L peptidase activity assay (Ki); assay type: biochemical
T1 construct: purchased CN Biosciences
Procedure, shortened: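 Human cathepsin L at 1 nM with Ac-Phe-Arg-AMC at its KM^app (~20 μM) in 10 mM bis-tris-propane pH 6.5, 1 mM EDTA, 5 mM 2-mercaptoethanol, 1 mM CaCl2, DMSO <1%, 25±1° C. Reaction enzyme-initiated; AMC fluorescence (ex 365/em 450 nm) monitored over time.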

Wild-type cruzipain = Wild-type cruzipain (Trypanosoma cruzi, UniProt P25779); assay: Trypanosoma cruzi cruzipain peptidase activity assay (Ki); assay type: biochemical
Procedure, shortened: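 Native cruzipain from T. cruzi Dm28 epimastigotes, 2.5 nM, in 100 mM sodium phosphate pH 6.75 with 1 mM EDTA and 10 mM L-cysteine, 25 °C, DMSO <1%. Rates taken from continuous fluorogenic substrate read; Ki by regression assuming reversible pure-competitive inhibition.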

[1] = Table 5, read-out: Ki Human Cathepsin L
[2] = read-out: Ki, inhibitors of cathepsin L
[3] = Table 5, read-out: Ki Cruzipain
[4] = read-out: Ki, inhibitors of cruzain and cruzipains

Chain of Wild-type cruzipain (P25779 whole entry): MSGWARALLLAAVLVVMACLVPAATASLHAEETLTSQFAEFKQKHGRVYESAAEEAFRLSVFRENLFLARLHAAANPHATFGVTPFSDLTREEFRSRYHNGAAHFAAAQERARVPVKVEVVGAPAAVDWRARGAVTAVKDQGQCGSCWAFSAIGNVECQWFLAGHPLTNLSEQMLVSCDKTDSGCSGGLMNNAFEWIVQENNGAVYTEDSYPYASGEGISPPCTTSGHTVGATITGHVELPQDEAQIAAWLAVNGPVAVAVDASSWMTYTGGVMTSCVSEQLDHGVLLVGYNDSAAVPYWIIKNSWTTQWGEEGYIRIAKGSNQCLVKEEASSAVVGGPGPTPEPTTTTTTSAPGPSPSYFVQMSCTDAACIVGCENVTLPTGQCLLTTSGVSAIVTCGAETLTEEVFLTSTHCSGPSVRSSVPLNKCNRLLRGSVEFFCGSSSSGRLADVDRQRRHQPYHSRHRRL
T1 sequence (P07711 114-333): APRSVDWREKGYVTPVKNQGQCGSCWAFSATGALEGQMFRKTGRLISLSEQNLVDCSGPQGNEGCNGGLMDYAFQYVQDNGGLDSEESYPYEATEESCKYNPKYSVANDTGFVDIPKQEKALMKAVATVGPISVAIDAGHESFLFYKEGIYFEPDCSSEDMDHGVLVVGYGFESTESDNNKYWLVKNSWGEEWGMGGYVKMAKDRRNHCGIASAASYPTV

SMILES | Ki (human cathepsin L; [1]) [µM] | Ki (human cathepsin L; [2]) [µM] | Ki (Wild-type cruzipain; [3]) [µM] | Ki (Wild-type cruzipain; [4]) [µM]
O=C(N[C@@H](CC1CCCCC1)C(=O)N1CC[C@@H]2[C@H]1C(=O)CN2C(=O)c1ccccc1)c1ccsc1 [Example 250, (3aR,6aS)-Thiophene-3-carboxylic acid [(1S)-2-(4-benzoyl-6-oxo-hexahydro-pyrrolo[3,2-b]pyrrole-1-yl)-1-cyclohexylmethyl-2-oxo-ethyl]-amide] | > 1 | < 5 | > 5 | 
CC(C)(C)c1ccc(C(=O)N[C@@H](Cc2ccc(O)cc2)C(=O)N2CC[C@@H]3[C@H]2C(=O)CN3C(=O)c2ccccc2)cc1 [Example 346, (3aR,6aS)-N-[(1S)-2-(4-Benzoyl-6-oxo-hexahydro-pyrrolo[3,2-b]pyrrol-1-yl)-1-(4-hydroxybenzyl)-2-oxo-ethyl]-4-tert-butyl-benzamide] | > 3 | < 5 | < 0.2 | 
CC(C)C[C@H](NC(=O)c1ccc2c(c1)CCCN2)C(=O)N1CC[C@@H]2[C@H]1C(=O)CN2C(=O)c1ccccc1 [Example 87, (3aR,6aS)-1,2,3,4-Tetrahydro-quinoline-6-carboxylic acid [(1S)-1-(4-benzoyl-6-oxo-hexahydro-pyrrolo[3,2-b]pyrrole-1-carbonyl)-3-methyl-butyl]-amide] |  | < 5 |  | < 5
CC(C)C[C@H](NC(=O)c1cccc(N(C)C)c1)C(=O)N1CC[C@@H]2[C@H]1C(=O)CN2C(=O)c1cccc(S(C)(=O)=O)c1 [Example 59, (3aR,6aS)-3-Dimethylamino-N-{(1S)-1-[4-(3-methanesulfonyl-benzoyl)-6-oxo-hexahydro-pyrrolo[3,2-b]pyrrole-1-carbonyl]-3-methyl-butyl}-benzamide] |  | < 5 |  | < 5
CC(C)C[C@H](NC(=O)c1cc2ccccc2s1)C(=O)N1CC[C@@H]2[C@H]1C(=O)CN2C(=O)c1ccccc1 [Example 7, (3aR,6aS)-Benzo[b]thiophene-2-carboxylic acid [(1S)-1-(4-benzoyl-6-oxo-hexahydro-pyrrolo[3,2-b]pyrrole-1-carbonyl)-3-methyl-butyl]-amide] |  | < 5 |  | < 5
CC(C)C[C@H](NC(=O)c1ccc(N2CCNCC2)cc1)C(=O)N1CC[C@@H]2[C@H]1C(=O)CN2C(=O)c1ccccc1 [Example 194, (3aR,6aS)-N-[(1S)-1-(4-Benzoyl-6-oxo-hexahydro-pyrrolo[3,2-b]pyrrole-1-carbonyl)-3-methyl-butyl]-4-piperazin-1-yl-benzamide] |  | < 5 |  | < 5
CC(C)C[C@H](NC(=O)c1ccc(OC(F)(F)F)cc1)C(=O)N1CC[C@@H]2[C@H]1C(=O)CN2C(=O)c1ccccc1 [Example 173, (3aR,6aS)-N-[(1S)-1-(4-Benzoyl-6-oxo-hexahydro-pyrrolo[3,2-b]pyrrole-1-carbonyl)-3-methyl-butyl]-4-trifluoromethoxy-benzamide] |  | < 5 |  | < 5
CC(C)C[C@H](NC(=O)c1ccc(N(C)C)cc1)C(=O)N1CC[C@@H]2[C@H]1C(=O)CN2C(=O)c1csc2ccccc12 [Example 103, (3aR,6aS)-N-{(1S)-1-[4-(Benzo[b]thiophene-3-carbonyl)-6-oxo-hexahydro-pyrrolo[3,2-b]pyrrole-1-carbonyl]-3-methyl-butyl}-4-dimethylamino-benzamide] |  | < 5 |  | < 5
CC(C)C[C@H](NC(=O)c1ccc(-n2cccn2)cc1)C(=O)N1CC[C@@H]2[C@H]1C(=O)CN2C(=O)c1ccccc1 [Example 91, (3aR,6aS)-N-[(1S)-1-(4-Benzoyl-6-oxo-hexahydro-pyrrolo[3,2-b]pyrrole-1-carbonyl)-3-methyl-butyl]-4-pyrazol-1-yl-benzamide] |  | < 5 |  | < 5
CC(C)C[C@H](NC(=O)c1ccc(C(C)(C)C)cc1)C(=O)N1NC[C@@H]2[C@H]1C(=O)CN2C(=O)c1ccccc1 [Example 249a, (3aR,6aS)-N-[(1S)-1-(4-benzoyl-6-oxo-hexahydropyrrolo[3,2-c]pyrazole-1-carbonyl)-3-methylbutyl]-4-tert-butylbenzamide] |  | < 5 |  | < 5
CC(C)C[C@H](NC(=O)c1ccc2ncsc2c1)C(=O)N1CC[C@@H]2[C@H]1C(=O)CN2C(=O)c1ccccc1 [Example 90, (3aR,6aS)-Benzothiazole-6-carboxylic acid [(1S)-1-(4-benzoyl-6-oxo-hexahydro-pyrrolo[3,2-b]pyrrole-1-carbonyl)-3-methyl-butyl]-amide] |  | < 5 |  | < 5
CC(C)C[C@H](NC(=O)c1ccc(N(C)C)cc1)C(=O)N1CC[C@@H]2[C@H]1C(=O)CN2C(=O)[C@@H](NC(=O)OCc1ccccc1)C(C)C [Example 158, (3aS,6aR)-((S)-1-{4-[(2S)-2-(4-Dimethylamino-benzoylamino)-4-methyl-pentanoyl]-3-oxo-hexahydro-pyrrolo[3,2-b]pyrrole-1-carbonyl}-2-methyl-propyl)-carbamic acid benzyl ester] |  | < 5 |  | < 5
CC(C)C[C@H](NC(=O)c1ccc(N)cc1)C(=O)N1NC[C@@H]2[C@H]1C(=O)CN2C(=O)c1cccc(S(C)(=O)=O)c1 [Example 249c, (3aR,6aS)-4-amino-N-{(1S)-1-[4-(3-methanesulfonylbenzoyl)-6-oxo-hexahydropyrrolo [3,2-c]pyrazole-1-carbonyl]-3-methylbutyl}benzamide] |  | < 5 |  | < 5
CC(C)C[C@H](NC(=O)c1ccc(N(C)C)cc1)C(=O)N1CC[C@@H]2[C@H]1C(=O)CN2C(=O)c1ccccc1 [Example 14, (3aR,6aS)-N-[(1S)-1-(4-Benzoyl-6-oxo-hexahydro-pyrrolo[3,2-b]pyrrole-1-carbonyl)-3-methyl-butyl]-4-dimethylamino-benzamide] |  | < 5 |  | < 5
CC(=O)N[C@@H](CC(C)C)C(=O)N1CC(=O)[C@@H]2[C@H]1CCN2C(=O)[C@H](CC(C)C)NC(=O)c1ccc(N(C)C)cc1 [Example 151, (3aR,6aS)-N-{(1S)-1-[4-((2S)-2-Acetylamino-4-methyl-pentanoyl)-6-oxo-hexahydro-pyrrolo[3,2-b]pyrrole-1-carbonyl]-3-methyl-butyl}-4-dimethylamino-benzamide] |  | < 5 |  | < 5
CC(C)C[C@H](NC(=O)c1cccc(N2CCNCC2)c1)C(=O)N1CC[C@@H]2[C@H]1C(=O)CN2C(=O)c1ccccc1 [Example 247, (3aR,6aS)-N-[(1S)-1-(4-Benzoyl-6-oxo-hexahydro-pyrrolo[3,2-b]pyrrole-1-carbonyl)-3-methyl-butyl]-3-piperazin-1-yl-benzamide] |  | < 5 |  | < 5
O=C(N[C@@H](Cc1ccc(O)cc1)C(=O)N1CC[C@@H]2[C@H]1C(=O)CN2C(=O)c1ccccc1)c1cccc2ccccc12 [Example 296, (3aR,6aS)-Naphthalene-1-carboxylic acid [(1S)-2-(4-benzoyl-6-oxo-hexahydro-pyrrolo[3,2-b]pyrrole-1-yl)-1-(4-hydroxybenzyl)-2-oxo-ethyl]-amide] | < 0.2 |  | > 1 | < 5
CC(C)C[C@H](NC(=O)c1ccc(-c2cccs2)cc1)C(=O)N1CC[C@@H]2[C@H]1C(=O)CN2C(=O)c1ccccc1 [Example 2, (3aR,6aS)-N-[(1S)-1-(4-Benzoyl-6-oxo-hexahydro-pyrrolo[3,2-b]pyrrole-1-carbonyl)-3-methyl-butyl]-4-thiophen-2-yl-benzamide] | > 3 |  | > 0.3 | < 5
CC(C)CC(NC(=O)c1ccc(N)cc1)C(=O)N1NC[C@@H]2[C@H]1C(=O)CN2C(=O)c1ccccc1 (stereo partly drawn) [Example 249b, (3aR,6aS)-4-amino-N-[1-(4-benzoyl-6-oxo-hexahydropyrrolo[3,2-c]pyrazole-1-carbonyl)-3-methylbutyl)benzamide] |  | < 5 |  | < 5
